Assay results as given in publication PMC8444087 (Toxicology and Applied Pharmacology, 2021).
Bridge positions count the residues as written; N and C are the ends. Ends that are not written are not given here.

Assays:
α1 I-domain = molecular target: T1, α1 I-domain (Homo sapiens, UniProt P56199); assay: Protein static adhesion assay: GST-tagged α1 I-domain adhesion to GLOGEN peptide coating; assay type: binding; conditions: TC-I-15 200 μM, Obtustatin 20 μM, 6F1 10 μg/ml
T1 construct: GST-tagged αI-domains were tested in static adhesion assays; made in house
T1 sequence (P56199 161-360 limits assumed): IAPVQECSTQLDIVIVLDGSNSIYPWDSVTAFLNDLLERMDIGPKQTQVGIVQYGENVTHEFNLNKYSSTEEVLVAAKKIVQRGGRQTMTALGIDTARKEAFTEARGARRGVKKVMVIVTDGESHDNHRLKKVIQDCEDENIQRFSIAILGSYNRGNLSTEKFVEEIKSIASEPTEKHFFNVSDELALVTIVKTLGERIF
Protocol: Immulon 2HB 96-well plates were coated with 100 μl per well of peptides at 10 μg/ml in 0.01 M acetic acid. After 3 × 200 μl/well washes with washing buffer (1 mg/ml BSA in TBS), plates were blocked with 200 μl per well of filtered 3% BSA in TBS for 1 h at RT. αI-domains were added at 10 μg/ml in washing buffer for 1 h at RT with 5 mM MgCl2 and various concentrations of inhibitor as stated. After 3 × 200 μl/well washes with washing buffer, anti-GST detection antibody (GE Healthcare HRP conjugated anti-GST GERPN1236) were added for 1 h. Plates were washed 4× with 200 μl per well of washing buffer and bound protein was quantified using the Pierce™ TMB Substrate Kit. The colorimetric reaction was stopped with an equal volume of 1 M H2SO4 and A450 was read as above. Each condition was performed in triplicate and each experiment was repeated at least three times using different preparations of proteins. […]
Fig. 1 Inhibition of binding of recombinant αI-domains to peptide coatings. Adhesion of A, α1 I-domain to GLOGEN and B, α2 I-domain to GFOGER, was measured using anti-GST-HRP conjugated antibody as described in Materials and methods, and is shown as mean A450 ± SD. […]

α10β1 = molecular target: T2, α10β1 (UniProt O75578+P09055); assay: Cellular static adhesion assay: C2C12 cells expressing α10β1 on collagen peptides; assay type: cell-based, human α-subunit, mouse β-subunit; conditions: C2C12-α10β1, GFOGER and GLOGEN coatings
T2 construct: expressed in transfected cells; host or cells: C2C12-α10 clone (gift, Xintela AB)
Protocol: (§1) C2C12s and HT1080s were grown in Lifetech DMEM/10% FBS and 1% penicillin/streptomycin. All cells were maintained under sterile conditions at 37 °C, 5% CO2. Cells were passaged using Trypsin/EDTA at 37 °C for 5 min and DMEM/10% FBS to quench the trypsin. C2C12 cells were transfected as described previously ([Tiger et al., 2001]). The C2C12-α10 clone was kindly made available by Dr. Evy Lundgren-Åkerlund, Xintela AB, Sweden.
(§2) Immulon 2HB 96-well plates were coated with 100 μl per well of peptides at 10 μg/ml in 0.01 M acetic acid overnight at 4 °C. After 3 × 200 μl/well PBS washes, plates were blocked with 200 μl/well filtered 3% BSA in PBS at RT for 1 h. Plates were washed, and 20,000 cells/well were added at room temperature (RT) for 1 h in serum-free media with 5 mM MgCl2 and varying concentrations of inhibitor. Unbound cells were washed away with 3× washes of 200 μl/well PBS. […] Cell number was quantified using 50 μl per well of the Roche cytotoxicity LDH kit. […] A490 was read in a SpectraMax 190 microplate reader (Molecular Devices). […]
(§3) PRISM 8.2.1 or later (GraphPad, San Diego, CA, USA), was used for all statistical tests. […] Inhibition curves were analysed using nonlinear regression comparing each data set with either a horizontal line model (null hypothesis, no inhibition) or three-parameter dose-response curve (inhibition occurs). […]

α11β1 = molecular target: T3, α11β1 (UniProt P09055+Q9UKX5); assay: Cellular static adhesion assay: C2C12 cells expressing α11β1 on collagen peptides; assay type: cell-based, human α-subunit, mouse β-subunit
T3 construct: expressed in transfected cells; host or cells: C2C12 mouse myofibroblasts, stably transfected
Protocol: as §1, §2, §3

E318A mutation of α2β1 = system: E318A mutation of α2β1; set-up: method as in Miller et al., 2009; conditions: ref Miller et al., 2009; cited from earlier work
platelets = system: platelets; set-up: method as in Miller et al., 2009; conditions: RGD-containing ligands; ref Miller et al., 2009; cited from earlier work
α2 I-domain = molecular target: T4, α2 I-domain (Homo sapiens, UniProt P17301); assay: Protein static adhesion assay: GST-tagged α2 I-domain adhesion to GFOGER peptide coating; assay type: binding; conditions: TC-I-15 200 μM, Obtustatin 20 μM
T4 construct: GST-tagged αI-domains were tested in static adhesion assays; made in house
T4 sequence (P17301 188-365 limits assumed): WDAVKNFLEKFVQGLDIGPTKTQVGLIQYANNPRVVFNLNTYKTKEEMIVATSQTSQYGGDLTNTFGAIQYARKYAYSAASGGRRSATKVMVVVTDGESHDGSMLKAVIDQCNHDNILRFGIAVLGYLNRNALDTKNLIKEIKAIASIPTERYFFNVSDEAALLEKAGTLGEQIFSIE
Protocol: Peptides contain a binding motif (such as GFOGER) flanked on either side by five GPP repeats and a GPC triplet at both the N- and C-termini. […] Peptides were dissolved at 5 mg/ml in 0.01 M acetic acid, heated to 70 °C for 5 min and allowed to cool overnight to enable triple helix folding. […]

α2β1 [1] = molecular target: T5, α2β1 (UniProt P09055+P17301); assay: Cellular static adhesion assay: C2C12 cells expressing α2β1 on collagen peptides; assay type: cell-based, human α-subunit, mouse β-subunit; conditions: C2C12-α2β1, GFOGER and GLOGEN coatings
T5 construct: expressed in transfected cells; host or cells: C2C12 mouse myofibroblasts, stably transfected
Source text: (§4) (For interpretation of the references to colour in this figure legend, the reader is referred to the web version of this article.)

α2β1 [2] = molecular target: T6, α2β1 (Homo sapiens, UniProt P05556+P17301); assay: Cellular static adhesion assay: HT1080 cells (express α2β1) on GFOGER; assay type: cell-based; conditions: GFOGER coating, dose curve
T6 construct: endogenous in cells; host or cells: HT1080 human fibrosarcoma cells
Source text: as §4

Lewis lung carcinoma = system: Lewis lung carcinoma; set-up: method as in Marcinkiewicz et al., 2003; Brown et al., 2008; conditions: mouse Lewis lung carcinoma model; ref Marcinkiewicz et al., 2003; Brown et al., 2008; cited from earlier work
melanoma = system: melanoma; set-up: method as in Marcinkiewicz et al., 2003; Brown et al., 2008; conditions: mice; ref Marcinkiewicz et al., 2003; Brown et al., 2008; cited from earlier work
[3] = molecular target: integrin α1β1 on stably transfected C2C12 cells (human | mouse (endogenous in C2C12)) (UniProt P56199); assay: static cell adhesion assay; inhibition by obtustatin (dose curve) of the adhesion of integrin-expressing cells to coated GFOGER; 1 h at RT, serum-free medium, 5 mM MgCl2; three-parameter dose-response fit
[4] = molecular target: integrin α1β1 on stably transfected C2C12 cells (human | mouse (endogenous in C2C12)) (UniProt P56199); assay: static cell adhesion assay; inhibition by obtustatin (dose curve) of the adhesion of integrin-expressing cells to coated GLOGEN; 1 h at RT, serum-free medium, 5 mM MgCl2; three-parameter dose-response fit

T3 sequence (Q9UKX5 23-1188): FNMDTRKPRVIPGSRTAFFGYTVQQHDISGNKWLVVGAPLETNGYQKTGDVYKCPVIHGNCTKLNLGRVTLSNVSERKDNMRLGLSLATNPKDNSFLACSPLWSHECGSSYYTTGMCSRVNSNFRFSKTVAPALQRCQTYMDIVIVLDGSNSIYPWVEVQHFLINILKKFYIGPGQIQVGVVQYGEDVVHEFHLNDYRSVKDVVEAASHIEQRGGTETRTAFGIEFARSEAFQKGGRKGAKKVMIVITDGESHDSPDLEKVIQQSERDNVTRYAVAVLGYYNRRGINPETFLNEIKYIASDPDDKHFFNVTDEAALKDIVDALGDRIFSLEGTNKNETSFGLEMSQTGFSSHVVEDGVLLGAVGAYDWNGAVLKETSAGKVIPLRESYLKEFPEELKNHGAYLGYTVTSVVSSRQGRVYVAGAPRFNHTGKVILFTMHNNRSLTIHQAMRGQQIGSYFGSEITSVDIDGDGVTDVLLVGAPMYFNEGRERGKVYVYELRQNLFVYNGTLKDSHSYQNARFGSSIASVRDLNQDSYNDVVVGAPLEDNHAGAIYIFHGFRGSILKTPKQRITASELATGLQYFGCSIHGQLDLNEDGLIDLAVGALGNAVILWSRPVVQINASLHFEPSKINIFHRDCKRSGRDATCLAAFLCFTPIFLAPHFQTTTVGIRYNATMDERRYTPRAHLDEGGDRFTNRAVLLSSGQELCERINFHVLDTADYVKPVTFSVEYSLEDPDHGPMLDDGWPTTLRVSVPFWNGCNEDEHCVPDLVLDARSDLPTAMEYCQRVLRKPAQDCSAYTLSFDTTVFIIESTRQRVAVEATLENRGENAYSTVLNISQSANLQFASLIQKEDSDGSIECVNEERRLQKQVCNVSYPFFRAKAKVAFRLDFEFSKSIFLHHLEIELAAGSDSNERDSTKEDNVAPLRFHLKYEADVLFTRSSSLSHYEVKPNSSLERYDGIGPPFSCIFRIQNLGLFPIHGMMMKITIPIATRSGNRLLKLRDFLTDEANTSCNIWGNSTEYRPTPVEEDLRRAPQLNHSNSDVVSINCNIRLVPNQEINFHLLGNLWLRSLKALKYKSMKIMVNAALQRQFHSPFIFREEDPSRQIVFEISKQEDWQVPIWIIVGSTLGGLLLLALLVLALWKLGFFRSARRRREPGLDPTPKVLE
T3 sequence (P09055 21-798): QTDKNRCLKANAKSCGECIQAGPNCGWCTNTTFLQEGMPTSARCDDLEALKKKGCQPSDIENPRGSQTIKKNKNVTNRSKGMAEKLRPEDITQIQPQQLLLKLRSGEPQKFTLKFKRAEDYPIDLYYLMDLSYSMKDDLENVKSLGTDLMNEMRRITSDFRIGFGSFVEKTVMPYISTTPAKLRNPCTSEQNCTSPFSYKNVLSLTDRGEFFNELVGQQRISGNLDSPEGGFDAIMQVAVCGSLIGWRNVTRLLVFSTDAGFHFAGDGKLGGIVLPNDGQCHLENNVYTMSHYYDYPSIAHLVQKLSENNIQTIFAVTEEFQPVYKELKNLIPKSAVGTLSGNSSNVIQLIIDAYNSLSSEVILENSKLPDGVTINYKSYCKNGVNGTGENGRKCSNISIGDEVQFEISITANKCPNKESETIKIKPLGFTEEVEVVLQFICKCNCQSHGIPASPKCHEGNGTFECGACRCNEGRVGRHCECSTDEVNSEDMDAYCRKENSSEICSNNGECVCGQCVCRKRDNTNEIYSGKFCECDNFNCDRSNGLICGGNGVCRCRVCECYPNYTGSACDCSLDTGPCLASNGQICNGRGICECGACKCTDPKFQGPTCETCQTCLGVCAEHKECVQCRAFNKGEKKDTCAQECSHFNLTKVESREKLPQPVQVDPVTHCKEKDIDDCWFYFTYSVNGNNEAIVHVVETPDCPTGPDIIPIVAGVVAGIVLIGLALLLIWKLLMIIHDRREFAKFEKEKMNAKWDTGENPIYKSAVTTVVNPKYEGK
Sequence of integrin α1β1 on stably transfected C2C12 cells (human | mouse (endogenous in C2C12)) (P56199 29-1179, chain 1 of 2): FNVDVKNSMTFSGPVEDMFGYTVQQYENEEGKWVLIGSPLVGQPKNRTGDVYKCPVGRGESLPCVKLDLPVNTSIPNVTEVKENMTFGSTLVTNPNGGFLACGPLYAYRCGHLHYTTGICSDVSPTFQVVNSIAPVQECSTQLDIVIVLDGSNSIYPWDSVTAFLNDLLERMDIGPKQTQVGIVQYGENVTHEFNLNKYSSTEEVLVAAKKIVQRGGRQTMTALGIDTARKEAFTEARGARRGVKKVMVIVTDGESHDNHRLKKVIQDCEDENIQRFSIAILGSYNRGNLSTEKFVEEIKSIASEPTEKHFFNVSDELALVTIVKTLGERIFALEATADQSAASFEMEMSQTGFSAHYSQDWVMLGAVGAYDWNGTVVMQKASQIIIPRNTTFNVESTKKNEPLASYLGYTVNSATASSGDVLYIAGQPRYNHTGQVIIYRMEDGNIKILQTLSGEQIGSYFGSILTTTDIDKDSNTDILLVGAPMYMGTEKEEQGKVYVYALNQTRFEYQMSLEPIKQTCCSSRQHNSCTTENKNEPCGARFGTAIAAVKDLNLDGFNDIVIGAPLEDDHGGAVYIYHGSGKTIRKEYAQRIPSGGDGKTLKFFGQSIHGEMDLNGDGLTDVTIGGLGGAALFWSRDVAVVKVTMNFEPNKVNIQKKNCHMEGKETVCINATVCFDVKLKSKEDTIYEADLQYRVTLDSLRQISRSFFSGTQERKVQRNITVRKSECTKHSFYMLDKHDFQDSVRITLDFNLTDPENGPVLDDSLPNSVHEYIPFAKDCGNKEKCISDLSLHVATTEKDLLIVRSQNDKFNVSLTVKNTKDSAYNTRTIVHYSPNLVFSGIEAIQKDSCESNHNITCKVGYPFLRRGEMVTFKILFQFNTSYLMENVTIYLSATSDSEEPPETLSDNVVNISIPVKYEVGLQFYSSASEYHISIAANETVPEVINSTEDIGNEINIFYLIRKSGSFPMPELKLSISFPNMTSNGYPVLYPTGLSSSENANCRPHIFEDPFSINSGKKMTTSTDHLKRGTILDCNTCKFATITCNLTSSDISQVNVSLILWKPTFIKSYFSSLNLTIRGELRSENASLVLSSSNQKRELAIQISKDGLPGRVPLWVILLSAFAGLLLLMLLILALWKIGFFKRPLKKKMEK
Sequence of integrin α1β1 on stably transfected C2C12 cells (human | mouse (endogenous in C2C12)) (P09055 21-798, chain 2 of 2, further chain): as the sequence (P09055 21-798) above
T2 sequence (O75578 23-1167): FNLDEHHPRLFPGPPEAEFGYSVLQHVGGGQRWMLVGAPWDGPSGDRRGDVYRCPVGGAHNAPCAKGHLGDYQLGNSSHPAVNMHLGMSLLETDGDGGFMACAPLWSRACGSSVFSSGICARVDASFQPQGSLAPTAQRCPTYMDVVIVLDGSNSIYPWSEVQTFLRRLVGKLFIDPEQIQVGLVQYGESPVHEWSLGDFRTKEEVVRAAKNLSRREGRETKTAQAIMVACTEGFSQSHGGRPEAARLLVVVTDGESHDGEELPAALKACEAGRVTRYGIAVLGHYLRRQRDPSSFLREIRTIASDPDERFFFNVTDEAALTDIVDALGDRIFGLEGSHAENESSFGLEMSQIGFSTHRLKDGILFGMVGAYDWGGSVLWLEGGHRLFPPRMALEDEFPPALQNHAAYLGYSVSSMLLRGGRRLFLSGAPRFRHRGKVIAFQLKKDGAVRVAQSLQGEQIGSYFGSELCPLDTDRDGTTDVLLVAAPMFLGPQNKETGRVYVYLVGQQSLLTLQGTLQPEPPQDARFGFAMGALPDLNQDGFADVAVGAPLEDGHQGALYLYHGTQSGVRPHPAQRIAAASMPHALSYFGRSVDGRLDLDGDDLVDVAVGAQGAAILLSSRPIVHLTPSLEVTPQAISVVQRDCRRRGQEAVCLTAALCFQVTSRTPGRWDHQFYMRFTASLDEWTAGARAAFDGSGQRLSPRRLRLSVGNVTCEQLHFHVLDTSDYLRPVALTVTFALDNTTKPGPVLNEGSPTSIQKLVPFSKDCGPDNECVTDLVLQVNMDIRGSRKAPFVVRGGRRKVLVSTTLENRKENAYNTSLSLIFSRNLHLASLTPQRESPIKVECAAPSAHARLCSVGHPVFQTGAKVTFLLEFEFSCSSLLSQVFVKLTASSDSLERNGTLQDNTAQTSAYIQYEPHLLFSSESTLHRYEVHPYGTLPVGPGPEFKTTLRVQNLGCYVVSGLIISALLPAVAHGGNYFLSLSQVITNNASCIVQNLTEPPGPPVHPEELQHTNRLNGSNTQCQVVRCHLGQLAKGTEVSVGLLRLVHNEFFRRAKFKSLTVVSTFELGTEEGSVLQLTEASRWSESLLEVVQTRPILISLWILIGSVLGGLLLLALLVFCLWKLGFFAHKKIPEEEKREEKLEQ
T2 sequence (P09055 21-798): as the sequence (P09055 21-798) above

Compound | Effect on α1 I-domain adhesion to GLOGEN (α1 I-domain) | Inhibition of α10β1-expressing C2C12 cell adhesion (dose curve) (α10β1) | IC50 (α11β1; C2C12-α11β1, GLOGEN coating, 5 mM MgCl2, 1 h RT, read-out: IC50, inhibition of α11β1-expressing C2C12 cell adhesion to GLOGEN) | Effect on constitutively active E318A mutation of α2β1 (E318A mutation of α2β1) | Effect on adhesion of platelets to fibronectin and fibrinogen (platelets) | Effect on α2 I-domain adhesion to GFOGER (α2 I-domain) | Inhibition of α2β1-expressing C2C12 cell adhesion (dose curve) (α2β1 [1]) | Inhibition of α11β1-expressing C2C12 cell adhesion (dose curve) (α11β1; C2C12-α11β1, GFOGER and GLOGEN coatings) | Effect on HT1080 adhesion to GFOGER (α2β1 [2]) | Reduction of tumour development (Lewis lung carcinoma) | Effect on melanoma growth (melanoma) | IC50 [3] | IC50 [4]
CC1(C)SCN(S(=O)(=O)c2ccccc2)[C@@H]1C(=O)N[C@@H](CNC(=O)NCc1ccccc1)C(=O)O [TC-I-15] | unaffected | no inhibition was seen | 177 µM | no effect | no effect |  |  |  |  |  |  |  | 
CTTGPCCRQCKLKPAGTTCWKTSLTSHYCTGKSCDCPLYPG (disulfide 1-10, 6-29, 7-34, 19-36 (inferred)) [obtustatin] | unaffected | no inhibition was observed |  |  |  | unaffected | no inhibition was observed | no inhibition was observed | no effect | 50% | blocked melanoma growth |  | 
obtustatin (peptide) |  |  |  |  |  |  |  |  |  |  |  | 450 nM | 960 nM
